# Patent US9901592B2 (priority 2008, dated 2018)
# Values joined by “and” are separate entries in the source; they are usually repeats but may differ in a detail not shown here. Identical values can stand only once. Like-named read-outs stand apart in the source and are kept apart here.
# Columns and labels:
# S. pyogenes [1] = format: cell-based; design: MIC: unit not given beside the values; conditions: for MIC50 / MIC90: Streptococcus pyogenes
# M. pneumoniae = experiment: microbe, parasite or virus in culture; format: cell-based; conditions: Mycoplasmoides pneumoniae
# M. genitalium = format: cell-based; conditions: M. genitalium (5 isolates)
# M. hominis = format: cell-based; conditions: M. hominis (13 isolates)
# U. parvum = experiment: MIC testing in 10B broth (colour change); format: cell-based, Ureaplasma parvum
# N. meningitidis = experiment: MIC, CLSI broth microdilution, invasive isolates; format: cell-based; conditions: Neisseria meningitidis; 62 N. meningitidis isolates
# Description: Example. […] Colonization of the nasopharynx (NP) by NM can lead to invasive meningococcal disease. Chemoprophylaxis is used to eradicate NP colonization and prevent transmission to nonimmune contacts. […] 62 isolates (91.9% blood culture) of NM were collected from 29 medical centers in North and South America and Europe (1997-2008). […] Serological identification was performed for serogroups (SGs) B, C, Y and W135.
# S. pyogenes [2] = experiment: microbe, parasite or virus in culture; format: cell-based; conditions: for MIC: Streptococcus pyogenes
# S. pneumoniae [3] = format: cell-based; conditions: for Mutant selection frequencies: S. pneumoniae
# S. pyogenes [4] = format: cell-based
# S. pyogenes 3029 = experiment: Intraperitoneal (IP) mouse infection model (ED50); format: in vivo; conditions: Streptococcus pyogenes, MAC-R S. pyogenes 3029
# S. aureus = experiment: mouse systemic infection model (PD50); format: in vivo
# S. pneumoniae [5] = experiment: mouse systemic infection model (PD50); format: in vivo
# S. pyogenes [6] = experiment: mouse systemic infection model (PD50); format: in vivo
# S. pyogenes [7] = experiment: MIC of the strains of the mouse systemic infection model; format: cell-based; conditions: Streptococcus pyogenes
# [8] = system: viridans group streptococci (VGS); format: cell-based; conditions: VGS (51)
# H. influenzae ATCC 49247 = experiment: post-antibiotic effect (PAE) testing; conditions: H. influenzae ATCC 49247; 4X MIC; exposure 1 hour
# [9] = S. pyogenes TEL R, Macr-R, 10 strains
# [10] = S. pyogenes TEL S, Macr-R, 30 strains
# [11] = S. pyogenes TEL S, Macr-S, 10 strains
# [12] = S. pyogenes (macrolide susceptible)
structure (smiles),measurement,setting,value
"CC[C@H]1OC(=O)[C@H](C)C(=O)[C@H](C)[C@@H](O[C@@H]2O[C@H](C)C[C@H](N(C)C)[C@H]2O)[C@](C)(OC)C[C@@H](C)C(=O)[C@H](C)[C@H]2N(CCCCn3cnc(-c4cccnc4)c3)C(=O)O[C@]12C [TEL, telithromycin]",MIC,S. pyogenes [1]; MAC-R S. pyogenes 3029,(16)
same,MIC50,S. pyogenes [1]; [9],32 µg/mL
same,MIC90,S. pyogenes [1]; [9],32 µg/mL
same,MIC50,S. pyogenes [1]; [10],0.125 µg/mL
same,MIC90,S. pyogenes [1]; [10],0.5 µg/mL
same,MIC50,S. pyogenes [1]; [11],0.03 µg/mL
same,MIC90,S. pyogenes [1]; [11],0.03 µg/mL
same,MIC50,M. pneumoniae,0.00025 µg/mL
same,MIC90,M. pneumoniae,0.001 µg/mL
same,MIC Range,M. genitalium,≦0.00003-0.00025 μg/mL
same,MIC Range,M. hominis,0.125 to 0.5 µg/mL
same,MIC50,"M. hominis; Metamycoplasma hominis, read-out: MIC50",0.25 µg/mL
same,MIC90,"M. hominis; Metamycoplasma hominis, read-out: MIC90",0.5 µg/mL
same,MIC Range,U. parvum; U. parvum (10 isolates),0.008 to 0.063 µg/mL
same,MIC50,U. parvum; Ureaplasma parvum,0.063 µg/mL
same,MIC90,U. parvum; Ureaplasma parvum,0.125 µg/mL
same,MIC,N. meningitidis,0.015 to 0.12 µg/mL
same,MIC50,N. meningitidis,≤ 0.015 µg/mL
same,MIC90,N. meningitidis,0.03 µg/mL
same,strains with resistant clones / strains tested,S. pyogenes [2]; S. pyogenes,2/4 and 2/5
same,MIC,"S. pyogenes [2]; read-out: Initial MIC, strain 237 Macrolide-R [LA mutation], parent",0.06 µg/mL
same,MIC,"S. pyogenes [2]; read-out: Initial MIC, strain 2011 Macrolide-R [mef(A)], parent",0.5 µg/mL
same,MIC,"S. pyogenes [2]; read-out: Initial MIC, strain 2094 Macrolide-R [erm(A)], parent",0.03 µg/mL
same,MIC,"S. pyogenes [2]; read-out: Initial MIC, strain 2132 Macrolide-S, parent",0.008 µg/mL
same,MIC,"S. pyogenes [2]; read-out: MIC of parents of resistant clones, S. pyogenes",0.03 to 8 µg/mL
same,MIC,"S. pyogenes [2]; read-out: Parental MICs, S. pyogenes, 5 strains with varying resistotypes",0.03 to 8 µg/mL
same,MIC,"S. pyogenes [2]; read-out: Selected Resistance (MIC), strain 237 Macrolide-R [LA mutation], after serial passages in the drug",0.125 µg/mL
same,MIC,"S. pyogenes [2]; read-out: Selected Resistance (MIC), strain 2011 Macrolide-R [mef(A)], after serial passages in the drug",1 µg/mL
same,MIC,"S. pyogenes [2]; read-out: Selected Resistance (MIC), strain 2094 Macrolide-R [erm(A)], after serial passages in the drug",0.25 µg/mL
same,MIC,"S. pyogenes [2]; read-out: Selected Resistance (MIC), strain 2132 Macrolide-S, after serial passages in the drug",0.03 µg/mL
same,MIC,"S. pyogenes [2]; read-out: Selected Resistance (MIC), strain 2368 Macrolide-R [erm(B)], after serial passages in the drug",> 64 µg/mL
same,days until resistant clones (MIC increase),"S. pyogenes [2]; daily passages, max. 50",6 to 22 days
same,Retest MIC after 10 Antibioticfree Subcultures,"S. pyogenes [2]; strain 237 Macrolide-R [LA mutation], clone selected with CEM-101",1 µg/mL
same,Retest MIC after 10 Antibioticfree Subcultures,"S. pyogenes [2]; strain 237 Macrolide-R [LA mutation], clone selected with CLN",0.06 µg/mL
same,Retest MIC after 10 Antibioticfree Subcultures,"S. pyogenes [2]; strain 2011 Macrolide-R [mef(A)], clone selected with AZI",0.25 µg/mL
same,Retest MIC after 10 Antibioticfree Subcultures,"S. pyogenes [2]; strain 2094 Macrolide-R [erm(A)], clone selected with AZI",0.03 µg/mL
same,Retest MIC after 10 Antibioticfree Subcultures,"S. pyogenes [2]; strain 2094 Macrolide-R [erm(A)], clone selected with CEM-101",0.5 µg/mL
same,Retest MIC after 10 Antibioticfree Subcultures,"S. pyogenes [2]; strain 2094 Macrolide-R [erm(A)], clone selected with CLN",0.03 µg/mL
same,Retest MIC after 10 Antibioticfree Subcultures,"S. pyogenes [2]; strain 2094 Macrolide-R [erm(A)], clone selected with CLR",0.03 µg/mL
same,Retest MIC after 10 Antibioticfree Subcultures,"S. pyogenes [2]; strain 2094 Macrolide-R [erm(A)], clone selected with TEL",0.125 µg/mL
same,Retest MIC after 10 Antibioticfree Subcultures,"S. pyogenes [2]; strain 2132 Macrolide-S, clone selected with AZI",0.03 µg/mL
same,Retest MIC after 10 Antibioticfree Subcultures,"S. pyogenes [2]; strain 2368 Macrolide-R [erm(B)], clone selected with CEM-101",>64 µg/mL
same,Retest MIC after 10 Antibioticfree Subcultures,"S. pyogenes [2]; strain 2368 Macrolide-R [erm(B)], clone selected with TEL",>64 µg/mL
same,Mutant selection frequencies,S. pneumoniae [3]; at 2×MIC,1.1×10^−9-1.3×10^−4
same,Mutant selection frequencies,S. pneumoniae [3]; at 8×MIC,<1.5×10^−10-4.8×10^−6
same,single step mutation frequency,"S. pneumoniae [3]; strain 24 Macrolide-R [erm(B)], 2 × MIC",1.3 × 10^−4
same,single step mutation frequency,"S. pneumoniae [3]; strain 24 Macrolide-R [erm(B)], 4 × MIC",2.5 × 10^−6
same,single step mutation frequency,"S. pneumoniae [3]; strain 24 Macrolide-R [erm(B)], 8 × MIC",1.7 × 10^−6
same,single step mutation frequency,"S. pneumoniae [3]; strain 1076 Macrolide-R [erm(B)&mef(A)], 2 × MIC",6.5 × 10^−6
same,single step mutation frequency,"S. pneumoniae [3]; strain 1076 Macrolide-R [erm(B)&mef(A)], 4 × MIC",9.7 × 10^−6
same,single step mutation frequency,"S. pneumoniae [3]; strain 1076 Macrolide-R [erm(B)&mef(A)], 8 × MIC",4.8 × 10^−6
same,single step mutation frequency,"S. pneumoniae [3]; strain 1077 Macrolide-S, 2 × MIC",1.1 × 10^−9
same,single step mutation frequency,"S. pneumoniae [3]; strain 1077 Macrolide-S, 4 × MIC",<5.5 × 10^−10
same,single step mutation frequency,"S. pneumoniae [3]; strain 1077 Macrolide-S, 8 × MIC",<5.5 × 10^−10
same,single step mutation frequency,"S. pneumoniae [3]; strain 1635 Macrolide-R [erm(A)], 2 × MIC",<2.7 × 10^−9
same,single step mutation frequency,"S. pneumoniae [3]; strain 1635 Macrolide-R [erm(A)], 4 × MIC",<2.7 × 10^−9
same,single step mutation frequency,"S. pneumoniae [3]; strain 1635 Macrolide-R [erm(A)], 8 × MIC",<2.7 × 10^−9
same,single step mutation frequency,"S. pneumoniae [3]; strain 2686 Macrolide-R [L4 mutation], 2 × MIC",2.2 × 10^−5
same,single step mutation frequency,"S. pneumoniae [3]; strain 2686 Macrolide-R [L4 mutation], 4 × MIC",2.2 × 10^−9
same,single step mutation frequency,"S. pneumoniae [3]; strain 2686 Macrolide-R [L4 mutation], 8 × MIC",<1.1 × 10^−9
same,single step mutation frequency,"S. pneumoniae [3]; strain 3009 Macrolide-R [23S rRNA mutation], 2 × MIC",3.8 × 10^−7
same,single step mutation frequency,"S. pneumoniae [3]; strain 3009 Macrolide-R [23S rRNA mutation], 4 × MIC",<1.5 × 10^−10
same,single step mutation frequency,"S. pneumoniae [3]; strain 3009 Macrolide-R [23S rRNA mutation], 8 × MIC",<1.5 × 10^−10
same,single step mutation frequency,"S. pneumoniae [3]; strain 3665 Macrolide-R [mef(A)], 2 × MIC",7.5 × 10^−9
same,single step mutation frequency,"S. pneumoniae [3]; strain 3665 Macrolide-R [mef(A)], 4 × MIC",2.5 × 10^−9
same,single step mutation frequency,"S. pneumoniae [3]; strain 3665 Macrolide-R [mef(A)], 8 × MIC",<2.5 × 10^−10
same,single step mutation frequency,"S. pneumoniae [3]; strain 7127 Macrolide-S [S20N in L4, A105V in L22], 2 × MIC",<5.0 × 10^−9
same,single step mutation frequency,"S. pneumoniae [3]; strain 7127 Macrolide-S [S20N in L4, A105V in L22], 4 × MIC",<5.0 × 10^−9
same,single step mutation frequency,"S. pneumoniae [3]; strain 7127 Macrolide-S [S20N in L4, A105V in L22], 8 × MIC",<5.0 × 10^−9
same,Mutant selection frequencies,"S. pyogenes [4]; S. pyogenes, at 2×MIC",<8.3×10^−11-7.7×10^−8
same,single step mutation frequency,"S. pyogenes [4]; strain 237 Macrolide-R [L4 mutation], 2 × MIC",<2.0 × 10^−10
same,single step mutation frequency,"S. pyogenes [4]; strain 237 Macrolide-R [L4 mutation], 4 × MIC",<2.0 × 10^−10
same,single step mutation frequency,"S. pyogenes [4]; strain 237 Macrolide-R [L4 mutation], 8 × MIC",<2.0 × 10^−10
same,single step mutation frequency,"S. pyogenes [4]; strain 2011 Macrolide-R [mef(A)], 2 × MIC",3.8 × 10^−8
same,single step mutation frequency,"S. pyogenes [4]; strain 2011 Macrolide-R [mef(A)], 4 × MIC",<6.3 × 10^−10
same,single step mutation frequency,"S. pyogenes [4]; strain 2011 Macrolide-R [mef(A)], 8 × MIC",<6.3 × 10^−10
same,single step mutation frequency,"S. pyogenes [4]; strain 2094 Macrolide-R [erm(A)], 2 × MIC",7.7 × 10^−8
same,single step mutation frequency,"S. pyogenes [4]; strain 2094 Macrolide-R [erm(A)], 4 × MIC",<1.5 × 10^−10
same,single step mutation frequency,"S. pyogenes [4]; strain 2094 Macrolide-R [erm(A)], 8 × MIC",<1.5 × 10^−10
same,single step mutation frequency,"S. pyogenes [4]; strain 2132 Macrolide-S, 2 × MIC",<8.3 × 10^−11
same,single step mutation frequency,"S. pyogenes [4]; strain 2132 Macrolide-S, 4 × MIC",<8.3 × 10^−11
same,single step mutation frequency,"S. pyogenes [4]; strain 2132 Macrolide-S, 8 × MIC",<8.3 × 10^−11
same,ED50,S. pyogenes 3029,> 150 mg/kg
same,PD50,S. aureus; MRSA 300 (CA),9.2 mg/kg
same,PD50,"S. aureus; S. aureus, single oral dose 1 hr post infection",>30 mg/kg
same,PD50,S. pneumoniae [5]; S. pneumoniae (macrolide susceptible),19.9 mg/kg
same,PD50,S. pneumoniae [5]; S. pneumoniae (mefR),10.6 mg/kg
same,PD50,S. pneumoniae [5]; S. pneumoniae serotype 19A,5.7 mg/kg
same,PD50,S. pyogenes [6]; S. pyogenes (erythromycin R),4.4 mg/kg
same,PD50,S. pyogenes [6]; [12],7.8 mg/kg
same,MIC,S. pyogenes [7]; S. pyogenes (erythromycin R),1 µg/mL
same,MIC,S. pyogenes [7]; [12],0.015 µg/mL
same,MIC50,[8],0.015 µg/mL
same,MIC90,[8],0.25 µg/mL
same,MIC Range,[8],≦0.008-0.5 μg/ml
same,PAE,H. influenzae ATCC 49247,1.2 h
